Common to all, as to assay type: in vivo
Assay [1] deals with yellow striped flea beetles. Briefly: Test of use as a cell tray drench treatment agent (Chinese cabbage). The following applies: for No. of plant damage scars/4 plants: counted 6 days after release. Here is the method:
3.57 g of wettable powder 2 obtained in Example 20 were dispersed in 1 liter of water to prepare a chemical liquid. 0.5 ml of chemical liquid per plant were dropped onto Chinese cabbage seedlings at the 4 to 4.5 leaf stage cultured in cell trays from above using a pipette. On the day following chemical treatment, the treated seedlings were planted in No. 6 flower pots containing Kuroboku soil and cultivated in a greenhouse. Each pot was covered with a cylindrical cage at 2, 14 and 28 days after planting, 10 adult yellow striped flea beetles were released inside the cages, and the numbers of plant damage scars caused by the adult yellow striped flea beetles were counted for four pots in each test group 6 days after releasing the insect pests. For the control, similar tests were carried out in the case of treating with commercially available bifenthrin SC and in the case of non-treatment.

The test system of assay [2] is yellow striped flea beetles. Briefly: Test of use as a seed treatment agent by combining with synthetic pyrethroids (rapeseed). To be noted: Inoculation 18 days after seeding; for No. of plant damage scars/3 plants, Average / No. of plant damage scars/3 plants, Repeat A / No. of plant damage scars/3 plants, Repeat B: 3 days in cage, 500 g of each active per 100 kg of rapeseed seeds; for Control rate: relative to untreated group. Here is the method:
Wettable powder 2 obtained in Example 20 was dispersed in 2.8 ml of a solution (sticker solution), in which 5% by weight of polyvinyl alcohol (Gohsenol GL05S, Nippon Synthetic Chemical) and 1% by weight of a surfactant in the form of sodium lignin sulfonate ([…] RX-B, Takemoto Oil & Fat) were dissolved in 94% by weight of water, so as to contain […] of acetamiprid, 0.35 ml of this dispersion were placed in a vinyl bag provided with a zipper containing 8 g of rapeseed seeds, immediately after which the zipper was closed followed by mixing by shaking vigorously for 30 seconds to adhere the chemical to the rapeseed seeds. The seeds were then spread out in a thin layer in a vat and air-dried overnight at room temperature to obtain rapeseed seeds adhered with 500 g of acetamiprid per 100 kg of seeds.
1 g of cypermethrin wettable powder (active ingredient: […]) was dispersed in 1.3 ml of distilled water, and 0.65 ml of this dispersion (20 mg as cypermethrin) were placed in a vinyl bag provided with a zipper containing 8 g of rapeseed seeds adhered with 500 g of acetamiprid per 100 kg of seeds, immediately after which the zipper was closed followed by mixing by shaking vigorously for 30 seconds to adhere the chemical to the rapeseed seeds. The seeds were then spread out in a thin layer in a vat and air-dried for 1 to 2 hours at room temperature followed by again placing in a vinyl bag provided with a zipper, adding 0.65 ml of the aforementioned dispersion and repeating the same procedure. These seeds were then spread out in a thin layer in a vat followed by allowing to air dry overnight at room temperature to obtain rapeseed seeds adhered with 500 g of cypermethrin and 500 g of acetamiprid per 100 kg of seeds.
In addition, wettable powder 2 obtained in Example 20 was dispersed in 1.1 g of bifenthrin SC (active ingredient: 7.2% by weight) so as to contain 80 mg of acetamiprid, and 0.55 ml of this dispersion (40 mg as bifenthrin and 40 mg of acetamiprid) were placed in a vinyl bag provided with a zipper containing 8 g of rapeseed seeds, followed immediately by mixing by shaking vigorously for 30 seconds to adhere the chemical to the seeds. The seeds were then spread out in a thin layer in a vat and air-dried overnight at room temperature to obtain rapeseed seeds adhered with 500 g of bifenthrin and 500 g of acetamiprid per 100 kg of seeds.
The resulting seeds were planted in a No. 2 flower pot containing alluvial soil and cultivated in a greenhouse. Eighteen days after seeding, rapeseed seedlings were transferred to a cage in which 100 adult yellow striped flea beetles had been released, and after allowing to stand for 3 days, the number of plant damage scars caused by the adult yellow striped flea beetles was counted for three plants in each test group. For the control, similar tests were carried out in the case of treating with 500 g of wettable powder 2, cypermethrin or bifenthrin alone per 100 kg of seeds, and in the case of non-treatment. Control rate (%)=((no. of scars of untreated group−no. of scars of treated group)/(no. of scars of untreated group))×100.

A further assay concerns Nephotettix cincticeps. Nature of the assay: Test of use as a paddy treatment agent by seedling box drench treatment. To be noted: for mortality at 0.03 ppm / mortality at 0.08 ppm / mortality at 0.12 ppm: Nephotettix cincticeps, soil, read-out: Insect mortality rate. As to the method: Wettable powder 4 obtained in Example 22 was diluted with water to a predetermined concentration to prepare a chemical liquid. 10 ml per tray of the chemical liquid was dropped onto the surface of soil containing seedlings having a height of about 10 cm cultivated in small plastic trays filled with granular planting soil using a pipette. Following chemical treatment, the trays were covered with a cylindrical cage and 6 two-instar Nephotettix cincticeps were released inside followed by counting the number of […] at 3 and 7 days after releasing the insect pests. For the control, similar tests were carried out for the case of treating with imidacloprid, and in the case of non-treatment. The control imidacloprid was sprayed onto the plants after adjusting to 5% by weight in dimethylformamide containing 1.5% by weight of Tween 20 and diluting with water.
Corrected insecticidal rate (%)=((survival rate in untreated group−survival rate in treated group)/survival rate in untreated group)×100

Structures are written as SMILES. Like-named read-outs stand apart in the source and are kept apart here.

The term mortality denotes the percentage killed.

Consider `Cc1c(COC(=O)[C@@H]2[C@H](/C=C(\Cl)C(F)(F)F)C2(C)C)cccc1-c1ccccc1` (racemic) [Bifenthrin, bifenthrin], for which the Control rate was 87.1% in assay [1] (After 2 days), 70.6% in assay [1] (After 14 days), 40.7% in assay [1] (After 28 days) and 3.2% in assay [2]. In addition, the “No. of plant damage scars/4 plants” value in assay [1] (beetles released After 2 days from planting, 0.5 ml of chemical liquid per plant) is given as 4; in assay [1] (beetles released After 14 days from planting), 103; in assay [1] (beetles released After 28 days from planting) it was 934. For the same compound, in assay [2], the “No. of plant damage scars/3 plants, Average” value is 270. The “No. of plant damage scars/3 plants, Repeat A” value in assay [2] stood at 306. The “No. of plant damage scars/3 plants, Repeat B” value in assay [2] worked out at 234.
As to `CC1(C)C(C=C(Cl)Cl)C1C(=O)OC(C#N)c1cccc(Oc2ccccc2)c1` (centres unmarked) [Cypermethrin, cypermethrin], in assay [2], the “No. of plant damage scars/3 plants, Average” value is on record as 269; the “No. of plant damage scars/3 plants, Repeat A” value amounted to 296; the “No. of plant damage scars/3 plants, Repeat B” value amounted to 241; the Control rate was 3.6%.
With `O=[N+]([O-])NC1=NCCN1Cc1ccc(Cl)nc1` [Imidacloprid, imidacloprid], the Corrected insecticidal rate in the assay with Nephotettix cincticeps (Concentration 0.03 ppm, After 3 days) worked out at 83%; in the assay on Nephotettix cincticeps (Concentration 0.03 ppm, After 7 days), 100%; in the assay with Nephotettix cincticeps (Concentration 0.08 ppm, After 3 days), 63%; with Nephotettix cincticeps (Concentration 0.08 ppm, After 7 days) it was 83%; in the assay on Nephotettix cincticeps (Concentration 0.12 ppm, After 3 days), 100%; in the assay with Nephotettix cincticeps (Concentration 0.12 ppm, After 7 days), 100%. Moreover, the mortality at 0.03 ppm in the assay with Nephotettix cincticeps (72 h, Concentration 0.03 ppm, After 3 days) came to 83%; in the assay with Nephotettix cincticeps (168 h, Concentration 0.03 ppm, After 7 days), 100%. For the same compound, the mortality at 0.08 ppm was determined as 63% with Nephotettix cincticeps (72 h, Concentration 0.08 ppm, After 3 days) and 83% with Nephotettix cincticeps (168 h, Concentration 0.08 ppm, After 7 days). In addition, the mortality at 0.12 ppm is 100% in the assay on Nephotettix cincticeps (72 h, Concentration 0.12 ppm, After 3 days) and 100% in the assay on Nephotettix cincticeps (168 h, Concentration 0.12 ppm, After 7 days).
